# Where “and” joins values, the source holds several entries; their conditions need not be identical. Identical values can stand only once. Like-named read-outs stand apart in the source and are kept apart here.
# What was measured:
# [1] = test system: supramaximal electroshock (extensor tonus); assay: supramaximal electroshock (SES) assay, anticonvulsant activity; type: in vivo, male mouse; settings: for ED50 SES: i.p.; for ED50 SES / ED50: 206 volts rms for 300 msec; for SES, % protection (normalized percent inhibition) at indicated dose: @ 60 mg/kg i.p.; for ED50: Mus musculus, ip
# Description: The compounds of the invention are also useful as anticonvulsants due to their anticonvulsant activity in mammals. Anticonvulsant activity is measured in the male mouse using the supramaximal electroshock (SES) assay described in Arch. Int. Pharmacodyn. 92: 97-107, 1952. In this procedure groups of animals are used. Drugs are prepared using distilled water and, if insoluble, a surfactant is added. Control animals receive vehicle. Drugs are routinely administered intraperitoneally (i.p.). The dosage volume is 10 ml/kg. A primary screen is given a 30 minute pretreat. The animal's eyes are placed across the output terminals of an A.C. shocker that delivers 206 volts rms for 300 msec. Electrode paste coats the animals eyes at the point of contact with the terminals. […] Protection is expressed as normalized percent inhibition relative to vehicle control.
# A time response is carried out using six animals/group. Animals are tested at 30, 60 and 120 minutes postdrug. Additional time periods are tested if indicated by previous tests. When the peak activity time has been determined, a dose response is initiated using 10 animals/group at that time period. The ED50 and 95% confidence interval are calculated by computer probit analysis.
# [2] = test system: metrazol lethality (pentylenetetrazol); assay: metrazol lethality (MTZ), anticonvulsant activity; type: in vivo, male mice; settings: for ED50: Mus musculus, ip; for MTZ, % protected at indicated dose: @ 60 mg/kg i.p.
# Description: Anticonvulsant activity is also measured using the metrazol lethality (MTZ). In this procedure groups of male mice are utilized. Test drugs are prepared using distilled water and, if insoluble, a suitable surfactant is added. The route of administration is i.p., but all administration are in volumes proportional to 10 cc/kg.
# For a time response, 25 animals (5/group) are administered drug i.p. at 15, 30, 60 and 90 minutes prior to Metrazol treatment. Control animals (2/group) receive vehicle. Metrazol (pentylenetetrazol) is prepared at a concentration of 225 mg/10 ml in distilled water. Metrazol is administered s.c. at 225 mg/kg in distilled water. Those animals alive 15 minutes after Metrazol injection are considered protected. The time period with the greatest percent protected is said to be that of peak drug activity.
# A dose range is run in the same manner as a time response except that 50 animals (10/group) are tested at the peak time of drug activity. One group receives vehicle. An ED50 is calculated by means of linear regression.
# [3] = test system: tetrabenazine induced ptosis; assay: tetrabenazine induced ptosis assay (antidepressant activity); type: in vivo, mice; settings: Mus musculus, ip; estimated 50% inhibition; read-out: ED50, inhibition of ptosis
# From the text: The 3-(piperidinyl)- and 3-(pyrrolidinyl)-1H-indazoles of the present invention are also useful as antidepressants by virtue of their ability to elicit an antidepressant response in mammals. […] Thus, for example,. the intraperitoneal (i.p.) dose effecting an estimated 50% inhibition of ptosis (ED50) in mice produced in this assay is as follows: […]
# [4] = test system: phenyl-p-quinone writhing; assay: phenyl-p-quinone writhing assay (analgesia); type: in vivo, mice; settings: for ED50: Mus musculus, sc, read-out: ED50, inhibition of writhing; for inhibition of writhing at indicated dose: @ 20 mg/kg, s.c.
# apomorphine climbing = apomorphine climbing mice assay (antipsychotic activity); type: in vivo, mice (CK-1 male); settings: for ED50: Mus musculus, ip, read-out: ED50, antipsychotic activity (climbing); for % decrease in climbing score at indicated dose: @ 10 mg/kg, i.p.
# Description: Antipsychotic activity is determined in the climbing mice assay by methods similar to those described by P. Protais, et al., Psychopharmacol., 50, 1 (1976) and B. Costall, Eur. J. Pharmacol., 50, 39 (1978).
# The subject CK-1 male mice (23-27 grams) are group-housed under standard laboratory conditions. The mice are individually placed in wire mesh stick cages (4"×4" by 10") and are allowed one hour for adaptation and exploration of the new environment. Then apomorphine is injected subcutaneously at 1.5 mg/kg, a dose causing climbing in all subjects for 30 minutes. Compounds to be tested for antipsychotic activity are injected intraperitoneally (i.p.) 30 minutes prior to the apomorphine challenge at a screening dose of 10 mg/kg.
# For evaluation of climbing, 3 readings are taken at 10, 20, and 30 minutes after apomorphine administration according to the following scale:
# 4 paws on bottom (no climbing)
# 2 paws on the wall (rearing)
# 4 paws on the wall (full climb)
# Mice consistently climbing before the injection of apomorphine will be discarded.
# With full-developed apomorphine climbing, the animals are hanging onto the cage walls, rather motionless, over longer periods of time. By contrast, climbs due to mere motor stimulation usually only last a few seconds.
# The climbing scores are individually totaled (maximal score: 6 per mouse over 3 readings) and the total score of the control group (vehicle intraperitoneally-apomorphine subcutaneously) is set to 100%. ED50 values with 95% confidence limits, calculated by a Linear Regression Analysis of some of the instant 3-(piperidinyl)-1H-indazoles and 3-(pyrrolidinyl)-1H-indazoles as well as standard antipsychotics, are presented in Table 1.
# [5] = 30 minutes prior to apomorphine 1.5 mg/kg s.c.
compound,measurement,setting,value
1-(2-Phenylethyl)-3-(1-methyl-4-piperidinyl)-1H-indazole hydrobromide [Example 14],ED50 SES,[1],34.9 mg/kg
1-(4-Nitrophenyl)-3-(1-methyl-4-piperidinyl)-1H-indazole hydrochloride [Example 7],"SES, % protection (normalized percent inhibition) at indicated dose",[1],0%
"1-(6-Fluoro-1,2-benzisoxazole-3-propyl)-3-(1-methyl-4-piperidinyl)-1H-indazole maleate [Example 11]",ED50 MTZ,"[2]; i.p., Metrazol 225 mg/kg s.c.",79.6 mg/kg
1-Hydroxymethyl-3-(1-methyl-4-piperidinyl)-1H-indazole [Example 10],ED50 SES,[1],35.3 mg/kg
CN1CCC(c2nn(-c3ccccc3N)c3ccccc23)CC1.O=C(O)/C=C/C(=O)O [1-(2-Aminophenyl)-3-(1-methyl-4-piperidinyl)-1H-indazole fumarate],ED50,[3],19.2 mg/kg
CN1CCC(c2nn(-c3ccccc3Cl)c3ccccc23)CC1.O=C(O)/C=C/C(=O)O [1-(2-Chlorophenyl)-3-(1-methyl-4-piperidinyl)-1H-indazole fumarate],ED50,[3],5.3 mg/kg
Clc1ccccc1-n1nc(C2CCNCC2)c2ccccc21.O=C(O)/C=C/C(=O)O [1-(2-Chlorophenyl)-3-(4-piperidinyl)-1H-indazole fumarate],ED50,[3],5.9 mg/kg
CC(=O)n1nc(C2CCN(C)CC2)c2ccccc21.Cl [1-Acetyl-3-(1-methyl-4-piperidinyl)-1H-indazole hydrochloride],ED50,[4],0.71 mg/kg
same,ED50,apomorphine climbing,5.4 mg/kg
CN1CCC(c2nn(C(=O)c3ccccc3)c3ccccc23)CC1.Cl [1-Benzoyl-3-(1-methyl-4-piperidinyl)-1H-indazole hydrochloride],ED50,[4]; approximately 50% inhibition,0.85 mg/kg
same,ED50,apomorphine climbing; [5],6.5 mg/kg
CN1CCC(c2nn(C(=O)c3ccccc3)c3cc(F)ccc23)CC1.O=C(O)/C=C/C(=O)O [1-Benzoyl-6-fluoro-3-(1-methyl-4-piperidinyl)-1H-indazole fumarate],ED50,[4]; approximately 50% inhibition,0.17 mg/kg
same,ED50,apomorphine climbing; [5],1.8 mg/kg
Br.CN1CCC(c2nn(CC3CC3)c3ccccc23)CC1 [1-Cyclopropylmethyl-3-(1-methyl-4-piperidinyl)-1H-indazole hydrobromide],ED50,[4]; approximately 50% inhibition,1.1 mg/kg
same,% decrease in climbing score at indicated dose,apomorphine climbing,36%
Br.CCn1nc(C2CCN(C)CC2)c2ccccc21 [1-Ethyl-3-(1-methyl-4-piperidinyl)-1H-indazole hydrobromide],ED50,[4],0.65 mg/kg
same,% decrease in climbing score at indicated dose,apomorphine climbing,41%
Br.CN1CCC(c2nn(Cc3ccccc3)c3ccccc23)CC1 [1-Phenylmethyl-3-(1-methyl-4-piperidinyl)-1H-indazole hydrobromide],inhibition of writhing at indicated dose,[4]; hydrobromide,75% and 96%
CN(C)CCCn1nc(C2CCN(C)CC2)c2ccccc21.O=C(O)/C=C/C(=O)O.O=C(O)/C=C/C(=O)O [1-[3-(Dimethylamino)propyl]-3-(1-methyl-4-piperidinyl)-1H-indazole difumarate],inhibition of writhing at indicated dose,[4],15%
CN1CCC(c2nn(-c3ccc(C(F)(F)F)cc3)c3ccccc23)CC1.Cl [3-(1-Methyl-4-piperidinyl)-1-[4-(trifluoromethyl)phenyl]-1H-indazole hydrochloride],ED50,[4]; approximately 50% inhibition,9.8 mg/kg
CN1CCC(c2nn(C(=O)OCC(Cl)(Cl)Cl)c3ccccc23)CC1.Cl [3-(1-Methyl-4-piperidinyl)-1-trichloroethoxycarbonyl-1H-indazole hydrochloride],% decrease in climbing score at indicated dose,apomorphine climbing,46%
"CN1CCC(c2n[nH]c3ccccc23)CC1 [3-(1-methyl-4-piperidinyl)-1H--indazole, 3-(1-Methyl-4-piperidinyl)-1H-indazole]",ED50,[4],0.26 mg/kg
same,ED50,apomorphine climbing,4.5 mg/kg
"Fc1ccc(C(CCCN2CCC(c3n[nH]c4ccccc34)CC2)c2ccc(F)cc2)cc1 [3-[1-[4,4-bis(4-Fluorophenyl)butyl]-4-piperidinyl]-1H-indazole]",inhibition of writhing at indicated dose,[4],31%
same,ED50,apomorphine climbing; [5],7.4 mg/kg
CNC(=O)N1CCC(c2nn(-c3ccccc3F)c3ccccc23)CC1 [Compound 1],ED50,[2]; Metrazol 225 mg/kg s.c.,49 mg/kg
same,ED50,[1],37 mg/kg
"O=C(Nc1ccccc1)N1CCC(c2nn(-c3ccccc3)c3cc(F)ccc23)CC1 [Compound 2, N-Phenyl-4-(6-fluoro-1-phenyl-1H-indazol-3-yl)piperidine-1-carboxamide]","MTZ, % protected at indicated dose",[2],20%
same,"SES, % protection (normalized percent inhibition) at indicated dose",[1],0%
"Br.NC(=O)N1CCC(c2nn(-c3ccc(C(F)(F)F)cc3)c3ccccc23)CC1 [Compound 3, 4-[1-[4-(Trifluoromethyl)phenyl]-1H-indazol-3-yl]-1-piperidine carboxamide hydrobromide]",ED50,[2]; Metrazol 225 mg/kg s.c.,27.4 mg/kg
same,ED50,[1],10.9 mg/kg
"CNC(=O)N1CCC(c2nn(-c3ccccc3)c3cc(F)ccc23)CC1 [Compound 4, N-Methyl-4-(6-fluoro-1-phenyl-1H-indazol-3-yl)piperidine-1-carboxamide]","MTZ, % protected at indicated dose",[2],0%
same,ED50,[1],64.9 mg/kg
"Fc1ccc2c(C3CCN(C(=S)Nc4ccccc4)CC3)nn(-c3ccccc3)c2c1 [Compound 5, N-Phenyl-4-(6-fluoro-1-phenyl-1H-indazol-3-yl)piperidine-1-carbothioamide]","MTZ, % protected at indicated dose",[2],17%
same,"SES, % protection (normalized percent inhibition) at indicated dose",[1],0%
CNC(=O)N1CCC(c2nn(-c3ccc(C(F)(F)F)cc3)c3ccccc23)CC1 [Compound 6],"MTZ, % protected at indicated dose",[2],20%
same,ED50,[1],44.9 mg/kg
"CC(=O)N1CCC(c2nn(-c3ccccc3)c3cc(Br)ccc23)CC1 [Compound 8, 1-Acetyl-4-(6-bromo-1-phenyl-1H-indazol-3-yl)piperidine]","MTZ, % protected at indicated dose",[2],0%
same,"SES, % protection (normalized percent inhibition) at indicated dose",[1],33%
CNC(=O)N1CCC(c2nn(-c3ccc(F)cc3)c3ccccc23)CC1 [Compound 9],ED50,[2]; Metrazol 225 mg/kg s.c.,45.5 mg/kg
same,ED50,[1],31.7 mg/kg
O=CN1CCC(c2nn(-c3ccc(C(F)(F)F)cc3)c3ccccc23)CC1 [Compound 12],ED50,[2]; Metrazol 225 mg/kg s.c.,60.9 mg/kg
same,ED50,[1],27.2 mg/kg
O=CN1CCC(c2nn(-c3ccc(F)cc3)c3ccccc23)CC1 [Compound 13],"MTZ, % protected at indicated dose",[2],40%
same,ED50,[1],24.7 mg/kg
"NC(=O)N1CCC(c2nn(-c3ccccc3)c3cc(Cl)ccc23)CC1 [Compound 15, 4-(6-Chloro-1-phenyl-1H-indazol-3-yl)piperidine-1-carboxamide]",ED50,[2]; Metrazol 225 mg/kg s.c.,31.2 mg/kg
same,ED50,[1],48.1 mg/kg
CN(C)C(=O)N1CCC(c2nn(-c3ccc(C(F)(F)F)cc3)c3ccccc23)CC1 [Compound 16],"MTZ, % protected at indicated dose",[2],20%
same,"SES, % protection (normalized percent inhibition) at indicated dose",[1],20%
"O=C(CCCN1CCC(O)(c2ccc(Cl)cc2)CC1)c1ccc(F)cc1 [haloperidol, reference compound]",ED50,apomorphine climbing,0.11 mg/kg
"CC(C)=CCN1CCC2(C)c3cc(O)ccc3CC1C2C (stereo not shown) [pentazocine, reference compound]",ED50,[4],1.3 mg/kg
"CCC(=O)O[C@](Cc1ccccc1)(c1ccccc1)[C@H](C)CN(C)C [propoxyphene, reference compound]",ED50,[4],3.9 mg/kg

# Source: US4853470A, “3-(piperidinyl)- and 3-(pyrrolidinyl)-1H-indazoles” (Hoechst-Roussel Pharmaceuticals, Inc., priority 1988, dated 1989)
